Drawing on US10588866B2, “Stable solid lipid particle composition for improved bioavailability of lipophilic compounds for age-related diseases” (VERDURE SCIENCES, priority 2014, dated 2020), this text covers AUC(0-t) and Cmax for one compound.

Structures are written as SMILES.

The nature of this data set: Single oral dose pharmacokinetics of curcumin in plasma and mesenteric lymph. Type of data set: in vivo, Sprague-Dawley rats. The note with it: Sprague-Dawley, rat, plasma, 75 mg/kg. The method, then: Prior to treatment, the rats were anaesthetized followed by a surgical intervention to cannulate the mesenteric mesenteric lymph duct (for lymph collection) and the carotid artery (for blood collection). The cannulas were externalized and the rats were allowed to recover for 24 hours. Thereafter, either the curcumin suspension or the SLCP dosage form was administered via gavage. Blood (0.25 ml) was sampled prior to and 0.5, 1.0, 2.0, 3.0 and 5.0 hours after administration into vials coated with EDTA. Blood samples were centrifuged to obtain plasma and stored at <−30° C. until analysis. Mesenteric lymph (0.25 ml) was collected prior to and 1 and 5 hours after administration into vials coated with EDTA and stored at <−30° C. until analysis.
Analysis of curcumin and glucuronated curcumin was performed by HPLC with UV-detection coupled to MS according to published methods. […] The Limit of Determination was set to 2.5 ng/ml biological fluid.

`COc1cc(/C=C/C(=O)CC(=O)/C=C/c2ccc(O)c(OC)c2)ccc1O` [Standard, Curcumin] displayed an AUC(0-t) of 562 ng·h/mL and a Cmax of 190 ng/mL.
